Results on five compounds are retold here after ChEMBL document CHEMBL5528027, “Target identification, and optimization of dioxygenated amide derivatives as potent antibacterial agents with FabH inhibitory activity” (Eur J Med Chem, 2024).

In brackets after ≈: the same amount, converted by molar mass. Activity calls are given as the source filed them. No cut-off for these calls is given here.

Broadly, the MIC is the lowest concentration that inhibits growth of the organism. As a reminder, the IC50 is the concentration that inhibits the measured activity by half. The low end stands for higher potency, the high end for lower potency. Usually Kd stands for a measure of binding affinity in units of concentration.

One series relates to Klebsiella pneumoniae. The series can be described thus: Antibacterial activity against Klebsiella pneumoniae assessed as reduction in bacterial growth measured after 24 hrs by two-fold serial dilution method. The format is functional.
The next series has as its system Pseudomonas aeruginosa. The series can be described thus: Antibacterial activity against Pseudomonas aeruginosa assessed as reduction in bacterial growth measured after 24 hrs by two-fold serial dilution method. The class given is functional.
The test system of the next series is Escherichia coli. The series can be described thus: Antibacterial activity against Escherichia coli assessed as reduction in bacterial growth measured after 24 hrs by two-fold serial dilution method. The format is functional.
In series [1] the test system is Staphylococcus aureus. The series can be described thus: Antibacterial activity against Staphylococcus aureus assessed as reduction in bacterial growth measured after 24 hrs by two-fold serial dilution method. The class given is functional.
A further series relates to Bacillus subtilis. Nature of the series: Antibacterial activity against Bacillus subtilis assessed as reduction in bacterial growth measured after 24 hrs by two-fold serial dilution method. The class given is functional.
Series [2] is described as follows: Cytotoxicity against mouse NIH3T3 cells incubated for 24 hrs by MTT analysis. The class given is toxicity, cell-based.
Series [3] concerns the target T1, Beta-ketoacyl-[acyl-carrier-protein] synthase III (Escherichia coli K-12, UniProt P0A6R0).
T1 sequence (P0A6R0 whole entry): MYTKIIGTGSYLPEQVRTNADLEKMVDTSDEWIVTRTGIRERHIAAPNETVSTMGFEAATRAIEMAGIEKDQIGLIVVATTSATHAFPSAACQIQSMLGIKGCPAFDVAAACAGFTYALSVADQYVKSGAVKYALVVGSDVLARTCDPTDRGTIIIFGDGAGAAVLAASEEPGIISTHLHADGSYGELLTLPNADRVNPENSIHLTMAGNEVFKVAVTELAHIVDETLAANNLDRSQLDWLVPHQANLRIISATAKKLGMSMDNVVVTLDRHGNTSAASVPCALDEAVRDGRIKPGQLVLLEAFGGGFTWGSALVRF
The series can be described thus: Inhibition of Escherichia coli FabH.

In the next series the test system is Erythrocyte. Nature of the series: Hemolytic activity in human erythrocytes assessed as hemolysis by spectrophotometric analysis. The class given is toxicity, cell-based.
In the next series the test system is Streptococcus pneumoniae. Nature of the series: Antibacterial activity against Streptococcus pneumoniae assessed as reduction in bacterial growth measured after 24 hrs by two-fold serial dilution method. The class given is functional.
The test system of series [4] is Staphylococcus aureus. The series can be described thus: In vivo antibacterial activity against Staphylococcus aureus infected in Sprague-Dawley rat skin infection model assessed in shrink of wound area measured after 3 days. The class given is functional, organism-based. Particulars: time 3.0 day.
For series [5], the system named is Staphylococcus aureus. Nature of the series: In vivo antibacterial activity against Staphylococcus aureus infected in Sprague-Dawley rat skin infection model assessed in reduction of wound pus measured after 3 days. The class given is functional, organism-based. The note with it: time 3.0 day.
Series [6] addresses T2, Beta-ketoacyl-[acyl-carrier-protein] synthase III (Escherichia coli K-12) (UniProt P0A6R0).
T2 sequence (whole entry): T1 sequence (P0A6R0 whole entry)
The series can be described thus: Binding affinity to Escherichia coli FabH assessed as change in enthalpy by Isothermal titration calorimetry method. Background: In ITC the heat of successive injections is recorded.

The subject of series [7] is Staphylococcus aureus. Nature of the series: In vivo antibacterial activity against Staphylococcus aureus infected in Sprague-Dawley rat skin infection model assessed in decrease in number of inflammatory cells within wound tissue measured after 3 to 10 days by H and E staining based analysis. The note with it: time 3-10 day. The format is functional, organism-based.

Series [8] relates to Staphylococcus aureus. The series can be described thus: In vivo antibacterial activity against Staphylococcus aureus infected in Sprague-Dawley rat skin infection model assessed in wound healing measured after 10 days (reference value: 70.8%). The class given is functional. The note with it: time 10 day.
In series [9] the test system is Staphylococcus aureus. The series can be described thus: In vivo antibacterial activity against Staphylococcus aureus infected in Sprague-Dawley rat skin infection model assessed in reduction of wound size measured after 6 days. The format is functional, organism-based. The note with it: time 6.0 day.
Series [10] relates to Staphylococcus aureus. Nature of the series: In vivo antibacterial activity against Staphylococcus aureus infected in Sprague-Dawley rat skin infection model assessed in reduction of wound exudation measured after 3 days. The format is functional, organism-based. The note with it: time 3.0 day.
Series [11] deals with T2, Beta-ketoacyl-[acyl-carrier-protein] synthase III (Escherichia coli K-12). The series can be described thus: Binding affinity to Escherichia coli FabH assessed as change in entropy by Isothermal titration calorimetry method.
Series [12] shares this target. The series can be described thus: Binding affinity to Escherichia coli FabH assessed as change in Gibbs free energy by Isothermal titration calorimetry method.
Series [13] has as its target T1, Beta-ketoacyl-[acyl-carrier-protein] synthase III. The series can be described thus: Binding affinity to Escherichia coli FabH assessed as dissociation constant by Isothermal titration calorimetry method.

For `CCOC(=O)c1cccnc1NC(=O)c1ccc2c(c1)OCCCO2`, the MIC in the series with Klebsiella pneumoniae worked out at 25 µg/mL (≈ 73 µM); in the series with Pseudomonas aeruginosa, 12.5 µg/mL (≈ 36.5 µM); in the series with Escherichia coli it was 6.25 µg/mL (≈ 18.3 µM); in the series with Staphylococcus aureus [1], 25 µg/mL (≈ 73 µM); in the series on Bacillus subtilis, 25 µg/mL (≈ 73 µM); in the series on Streptococcus pneumoniae, 25 µg/mL (≈ 73 µM). The same compound registered an IC50 at 24 h in [2] of 147 µM. Besides, in series [3], the IC50 was 26.8 µM. The HC30 with Erythrocyte was greater than 10 µg/mL.

`O=C(Nc1ccc(C(F)(F)F)cn1)c1ccc2c(c1)OCCCO2`: the MIC with Klebsiella pneumoniae was 6.25 µg/mL (≈ 18.5 µM); with Pseudomonas aeruginosa, 6.25 µg/mL (≈ 18.5 µM); in the series on Escherichia coli, 3.13 µg/mL (≈ 9.25 µM); in the series with Staphylococcus aureus [1] it was 50 µg/mL (≈ 148 µM); with Bacillus subtilis, greater than 100 µg/mL; in the series on Streptococcus pneumoniae, 25 µg/mL (≈ 73.9 µM). The same compound registered an IC50 at 24 h in series [2] of 204 µM. This compound also returned an IC50 in series [3] of 8.6 µM. The HC30 with Erythrocyte is greater than 10 µg/mL.

Consider `CN1CCN(C(=O)c2ccc3c(c2)OCCCO3)CC1`, for which the MIC in the series on Klebsiella pneumoniae was found to be 6.25 µg/mL (≈ 22.6 µM); with Pseudomonas aeruginosa, 3.13 µg/mL (≈ 11.3 µM); with Escherichia coli, 6.25 µg/mL (≈ 22.6 µM); in the series with Staphylococcus aureus [1] it was 3.13 µg/mL (≈ 11.3 µM); in the series on Bacillus subtilis, 6.25 µg/mL (≈ 22.6 µM); in the series on Streptococcus pneumoniae it was 12.5 µg/mL (≈ 45.2 µM). The same compound returned an IC50 at 24 h in series [2] of 175 µM. Half-maximal inhibition in series [3] (IC50) was put at 38.2 µM. In addition, the HC30 in the series with Erythrocyte was greater than 10 µg/mL.

On to `COC(=O)c1c[nH]c2cc(NC(=O)c3ccc4c(c3)OCCCO4)ccc12`, for which the MIC came to 1.56 µg/mL (≈ 4.26 µM) in the series with Klebsiella pneumoniae; 1.56 µg/mL (≈ 4.26 µM) in the series on Pseudomonas aeruginosa; 1.56 µg/mL (≈ 4.26 µM) in the series on Escherichia coli; 3.13 µg/mL (≈ 8.54 µM) in the series on Staphylococcus aureus [1]; 3.13 µg/mL (≈ 8.54 µM) in the series on Bacillus subtilis; 6.25 µg/mL (≈ 17.1 µM) in the series on Streptococcus pneumoniae. The result in the series with Staphylococcus aureus [4], in the series on Staphylococcus aureus [5], with Staphylococcus aureus [7], with Staphylococcus aureus [9] and in the series with Staphylococcus aureus [10] was Active. Moreover, the deltaH in series [6] is -80 kcal/mol. Moreover, the Activity with Staphylococcus aureus [8] came out at 94%. This compound also returned an IC50 at 24 h in series [2] of 142 µM. In addition, in series [11], the TdeltaS was -73.6 kcal/mol. In addition, the IC50 in [3] is 2 µM. In addition, the HC30 in the series on Erythrocyte was greater than 10 µg/mL. The deltaG in series [12] was -6.4 kcal/mol. In [13], the equilibrium dissociation constant (Kd) is 21.5 µM.

Take `CC(=O)N1CCC(NC(=O)c2ccc3c(c2)OCCCO3)CC1`: the MIC came to 3.13 µg/mL (≈ 9.83 µM) in the series on Klebsiella pneumoniae; 3.13 µg/mL (≈ 9.83 µM) with Pseudomonas aeruginosa; 12.5 µg/mL (≈ 39.3 µM) in the series with Escherichia coli; 3.13 µg/mL (≈ 9.83 µM) in the series with Staphylococcus aureus [1]; 25 µg/mL (≈ 78.5 µM) in the series with Bacillus subtilis; 25 µg/mL (≈ 78.5 µM) in the series on Streptococcus pneumoniae. The same compound registered an IC50 at 24 h in series [2] of 132 µM. In series [3], half-maximal inhibition (IC50) was put at 17.5 µM. For the same compound, the HC30 with Erythrocyte was greater than 10 µg/mL.
